The values below come from PubChem BioAssay AID2252 (Southern Research Specialized Biocontainment Screening …, 2010).

Structures are written as SMILES. Where “and” joins values, the source holds several entries; their conditions need not be identical. Equal entries are not always repeated.

By EC50 is commonly meant the midpoint of the concentration-response curve.

The experiment has as its system THP-1 viability, CellTiter-Glo luminescence, 72 h. Kind of experiment: PubChem AID 2252.
Consider `CS(=O)(=O)c1ccc([C@@H](O)[C@@H](CF)NC(=O)C(Cl)Cl)cc1`, for which the EC50 was < 0.1 µM.
For `CN1CCN(CCCN2c3ccccc3Sc3ccc(Cl)cc32)CC1`, the EC50 is 14.7 µM and 10.2 µM.
Turning to `Nc1cccc2nc3ccccc3cc12`, the EC50 is 5.32 µM.
As for `O=C(Cc1ccc([N+](=O)[O-])cc1)N/N=C/c1ccc([N+](=O)[O-])o1`, the EC50 was 12.1 µM.
As to `O=C(C[n+]1cn(C(F)F)c2ccccc21)c1ccc(Br)cc1`, the EC50 is 35.8 µM.
In the case of `CC1CCCC(NC(=O)COC(=O)Cc2c[nH]c3ccccc23)C1C` (stereo not drawn), the EC50 was < 0.1 µM.
For `O=c1[nH]cc(F)c(=O)[nH]1`, the EC50 was 6.24 µM.
The same measure for `COc1cc([N+](=O)[O-])cc(/C=N/NC(=O)C(C)Nc2cccc(C)c2)c1O` (stereo not drawn): 27 µM; for `O=C(CSc1ccc(Cl)cc1)c1ccco1`: < 0.1 µM; for `O=C(/C=C/c1ccc(Cl)cc1)NCCCn1ccnc1`: < 0.1 µM.
Regarding `CC(C)N=C(N)N=C(N)Nc1ccc(Cl)cc1`, the concentration giving a half-maximal response (EC50) is 35.1 µM.
For the molecule `Oc1ccc(C=Nc2cccc3ncccc23)c(O)c1`, the EC50 is 3.33 µM.
Under `CN(C)CCNc1oc(COc2ccc(-c3ccccc3)cc2)nc1C#N` stands 13.1 µM; under `Oc1ccc(CN2CCCc3ccccc32)c2cccnc12`, 3.33 µM.
Consider `CCCC(=O)NC(c1ccco1)c1cc([N+](=O)[O-])c2cccnc2c1O` (stereo not drawn), for which the EC50 was 22.9 µM.
For `COc1ccc(OC)c(S(=O)(=O)N2CCC(C(=O)NCc3ccccc3OC)CC2)c1`, the EC50 is < 0.1 µM.
Take `Cc1[nH]c2ccccc2c1/C=C/c1nc2ccccc2c(=O)[nH]1`: the EC50 was 14 µM.
The same measure for `COc1ccc(C(C[N+](=O)[O-])C2(c3ccc(OC)c(OC)c3)C(=O)c3ccccc3C2=O)cc1` (stereo not drawn): 9.85 µM.
The same measure for `OC(CNCCc1ccc(C(F)(F)F)cc1)COC(c1ccccc1)c1ccccc1` (stereo not drawn): 15.9 µM.
For the molecule `CCCCCNc1nc(N2CCCC2)c2c(c1C#N)CCN(C)C2`, the EC50 was 23.3 µM.
In the case of `C#CCOCCOCCOCCNc1nc(N2CCN(C(=O)CCCCCCCCCCNC(=O)Cn3cc(CCCCCN)nn3)CC2)nc(N2CCN(C(=O)CCCCCCCCCCNC(=O)[C@@H]([C@H](C)O)n3cc(C)nn3)CC2)n1`, the EC50 was < 0.1 µM.
As for `CC1CCC(C(C)C)C(OC(=O)Cn2c(-c3ccc(Br)cc3)[n+](C)c3ccccc32)C1` (stereo not drawn), the EC50 was 2.16 µM.
Consider `CCN1CCN(c2cc(C)c3cc(NC(=S)N4CCN(c5ccccc5F)CC4)ccc3n2)CC1`, for which the 50% effective concentration (EC50) was 17.9 µM.
Regarding `O=[N+]([O-])c1cc(F)c2cccnc2c1O`, the EC50 is 22.9 µM.
Under `CCOc1ccc(-c2c[n+]3c(n2-c2ccccc2)CCCCC3)cc1` stands 25.6 µM.
With `c1cc2c(cc1C1CCCCC1)c1c3n2CCCNC3CCC1` (stereo not drawn), the EC50 is 5.18 µM.
For the molecule `CCOC(=O)c1c(CSC(=N)N)n(C)c2cc(Br)c(OC(C)=O)cc12`, the EC50 was 16.9 µM.
Turning to `Cc1cc([N+](=O)[O-])nn1CC(=O)N/N=C/c1ccccc1O`, the EC50 was 6.62 µM.
With `CC[C@H]1OC(=O)C[C@@H](O)[C@H](C)[C@@H](O[C@@H]2O[C@H](C)C[C@H](N(C)C)[C@H]2O)[C@@H](CC=O)C[C@@H](C)C(=O)C=C[C@]2(C)O[C@H]2[C@@H]1C`, the EC50 is 12.2 µM.
On to `C#CCOCCOCCOCCNc1nc(N2CCN(C(=O)CCCCCCCCCCNC(=O)[C@H](CCCCN)n3cc(C[C@@H](C)CC)nn3)CC2)nc(N2CCN(C(=O)CCCCCCCCCCNC(=O)[C@H](CCCN=C(N)N)n3cc(C[C@@H](C)CC)nn3)CC2)n1`, for which the concentration for a half-maximal effect (EC50) is 5.23 µM.
`CNCCC=C1c2ccccc2CCc2ccccc21`: the EC50 was 22.5 µM.
Under `Nc1nonc1C(=O)N/N=C/c1cc(Br)ccc1O` stands 4.18 µM; under `C(=N\Nc1nc2ccccc2[nH]1)/c1ccc2ncccc2c1`, 15.6 µM.
The same measure for `Cc1ccc(C(=O)NCCN2C3=NC[C@@H](Cc4ccccc4)N3C[C@H]2Cc2ccc(O)cc2)cc1Br`: 8.09 µM; for `Cc1ccc2oc(=O)c(/C=C(\O)c3ccccc3)nc2c1`: < 0.1 µM.
The same measure for `CCN1/C(=C/C=C/C=C/c2sc3ccccc3[n+]2CC)Sc2ccccc21`: 7.7 µM.
For the molecule `CN(C)c1ccc2nc3ccc(=[N+](C)C)cc-3sc2c1`, the EC50 is 0.72 µM.
Consider `C#CCOCCOCCOCCNc1nc(N2CCN(C(=O)CCCCCCCCCCNC(=O)[C@H](CO)n3cc(CCCCCN)nn3)CC2)nc(N2CCN(C(=O)CCCCCCCCCCNC(=O)[C@H](CCCN=C(N)N)n3cc(C[C@@H](C)CC)nn3)CC2)n1`, for which the EC50 is 6.31 µM.
Under `N/C(=N\N=C/c1ccc(F)cc1)N/N=C\c1ccc(F)cc1` stands 19 µM.
With `O=Cc1c(Cl)nc2ccccn2c1=O`, the EC50 was 21.7 µM.
Under `O=C(/C=C/c1cc(Br)ccc1O)c1ccco1` stands 8.79 µM.
The same measure for `O=Nc1ccc(O)c2ncccc12`: 2.07 µM; for `COc1ccc(N2C3=C(CC4=C2CC(C)(C)CC4=O)C(=O)CC(C)(C)C3)cc1`: 7.53 µM.
As to `C/C(=N/Nc1ccnc2cc(Cl)ccc12)c1ccc(N)cc1`, the EC50 is 8.34 µM.
As for `N=c1n(CCN2CCCCC2)c2ccccc2n1CC(=O)c1ccc(Cl)c(Cl)c1`, the EC50 was 20.4 µM.
The same measure for `O=C(/C=C/c1ccc(F)cc1)NC(=S)NNC(=O)c1cnccn1`: 6.17 µM; for `CCN1CCN(Cc2ccc(NC(=O)c3cc(NC(=O)c4cc(-c5ccc(OC)cc5)n[nH]4)cc(OC)c3)cc2C(F)(F)F)CC1`: 3.92 µM.
The same measure for `CNc1ccc(SC#N)cc1`: 33.7 µM.
Under `O=C(N/N=C/c1cc(Cl)ccc1O)c1cccnc1` stands 2.87 µM.
As for `CC(NCc1ccc(Cl)c(Cl)c1)C(O)c1ccccc1` (stereo not drawn), the EC50 was 30.6 µM.
As to `COc1ccc(C(=O)C[n+]2cc(Br)cc3ccccc32)cc1[N+](=O)[O-]`, the EC50 is < 0.1 µM.
Under `O=C(CCN1CCC(c2ccccc2)C1)c1ccc2c(c1)OCCO2` (stereo not drawn) stands 21.6 µM; under `CN(Cc1ccccc1)CC(O)COc1ccc(CNCc2ccc(Cl)s2)cc1` (stereo not drawn), 22.2 µM.
On to `CN(C)CCCn1c(SCC(=O)N2c3ccccc3Sc3ccccc32)nc2ccccc2c1=O`, for which the concentration for a half-maximal effect (EC50) was 14.2 µM.
As to `COc1ccc(/C=N/Nc2cc(C)nc3ccccc23)cc1`, the concentration giving a half-maximal response (EC50) was 7.03 µM.
Under `Cc1cc(C)n(-c2nc(SCCN(C)C)c3c4c(sc3n2)CCCC4)n1` stands 3.25 µM; under `CCn1cc(C(=O)O)c(=O)c2cc(F)c(N3CCN(S(=O)(=O)c4ccc(NC(C)=O)cc4)CC3)cc21`, 47.2 µM.
Take `O=C(N/N=C/c1cccc(OCc2ccccc2)c1)c1cccs1`: the EC50 was 40.4 µM.
Turning to `Cc1ccc(Nc2cc(C)nn2-c2nc(C)cc(=O)[nH]2)cc1`, the EC50 is 0.65 µM.
Regarding `O=C(NC(=S)NNC(=O)c1cccs1)c1ccco1`, the EC50 is 16.2 µM.
Under `C[C@H]1c2cccc(O)c2C(O)=C2C(=O)C3(O)C(O)=C(C(N)=O)C(=O)[C@@H](N(C)C)[C@@H]3[C@@H](O)[C@@H]21` (stereo partly drawn) stands 30.3 µM.
On to `CC(Nc1nc(N2CCCC2)nc2ccccc12)c1ccccc1` (stereo not drawn), for which the half-maximal effective concentration (EC50) is 9.31 µM.
The same measure for `COc1ccc(CSCCN)cc1Cl`: 44.9 µM; for `c1ccc2cc3c(NCCN4CCOCC4)ccnc3cc2c1`: 3.7 µM; for `CCOC(=O)C1=C(O)c2ccccc2C(=O)/C1=C\c1ccc(C)cc1`: 23.3 µM.
The same measure for `OCCCCNCc1ccc(OCc2ccc(Cl)cc2Cl)cc1`: 9.8 µM.
The same measure for `c1ccc(CN2CCC(Nc3nc(-c4ccccc4)nc4ccccc34)CC2)cc1`: 17.6 µM.
Regarding `NC1=NC[C@H](Cc2ccccc2)N1CCCCC1CCCCC1`, the EC50 was 3.5 µM.
For `O=C(N/N=C/c1ccc([N+](=O)[O-])s1)c1ccccc1Br`, the EC50 was 15.2 µM.
Under `O=C(C[n+]1cc(-c2ccc(Cl)cc2)n2c1CCC2)N1c2ccccc2Sc2ccccc21` stands 15.4 µM; under `O=CN/N=C/c1c(O)ccc2ccccc12`, 5.1 µM.
The same measure for `Cc1nc2ccccc2nc1N/N=C/c1ccc(O)cc1O`: 3.62 µM.
As to `CCCN1CCC(NCc2cn(C)nc2-c2ccc(Oc3ccccc3)cc2)CC1`, the EC50 is 9.72 µM.
The same measure for `COc1ccc(C[C@H]2CN3C(=NC[C@H]3Cc3ccccc3)N2CCNC(=O)c2ccc(C)c(Br)c2)cc1`: 7.83 µM.
On to `O=C(C[n+]1cccc(CNC(=O)c2ccc(OC(F)F)cc2)c1)Nc1ccc(SC(F)F)cc1`, for which the EC50 is 7.22 µM.
Regarding `Cc1ccccc1S(=O)(=O)NNC(=O)C(=O)NNc1ccccn1`, the EC50 was 24.2 µM.
As for `Cc1cc(NC2CCCCC2)nc(NCc2ccccc2)n1`, the half-maximal effective concentration (EC50) is 14.9 µM.
Regarding `O=C(N=Nc1c(O)[nH]c2ccccc12)c1cc(-c2cccs2)[nH]n1`, the half-maximal effective concentration (EC50) was < 0.1 µM.
Under `Oc1ccc(/C=N/Nc2nccnc2Cl)c(O)c1` stands 1.63 µM.
The same measure for `COc1ccc(C(=O)NNC(=S)NC(=O)c2ccccc2)cc1`: 6.81 µM; for `CCc1cccc2c1Sc1ccccc1CC2N1CCNCC1` (stereo not drawn): 9.72 µM.
For `CCCCOc1ccc(NC2=NC3(CCCC3)N=C(N)N2)cc1`, the EC50 is 17.4 µM.
In the case of `Cc1ccc(Nc2cc(C)c3c(O)cccc3n2)cc1C`, the EC50 was 23.8 µM.
Under `CC1CCc2cc(F)cc3c(=O)c(C(=O)O)cn1c23` (stereo not drawn) stands < 0.1 µM; under `O=C(Nc1ccc(Cl)cc1)Nc1ccc2c(c1)N1CCN=C1S2`, 13.9 µM.
With `N=c1c2c(n(Cc3ccc(Cl)cc3)c3c1CCC3)CCC2`, the EC50 was 11.3 µM.
As to `CCOC(=O)COc1cccc2c(=O)n(CC(=O)N3CCCCC3)ccc12`, the EC50 is 24.5 µM.
Under `CN1CCN(c2ccc(NC(=O)c3ccc(-c4ccc(Br)cc4)o3)cc2)CC1` stands 7.84 µM; under `Cc1c2ccncc2c(C)c2c1[nH]c1ccccc12`, 2.72 µM.
As to `CCn1nccc1C(=O)Nc1cc(Cl)cc(Cl)c1`, the EC50 was 37 µM.
Regarding `O=C(N/N=C/c1sc2ccccc2c1O)c1cccc2ccccc12`, the EC50 is 2.58 µM.
Under `C=CCc1cc(Cl)ccc1OCCCNCCO` stands 43.1 µM.
Under `CC1(C)N=C(N)NC(Nc2ccc(Br)cc2)=N1` stands 7.06 µM; under `Oc1ccc(C=Nc2ccc3ncccc3c2)c(O)c1`, 16.5 µM.
`O=C(c1cccs1)c1no[n+]([O-])c1C(=O)c1cccs1`: the EC50 is 1.89 µM.
Take `c1ccc2c(SCc3cn4ccccc4n3)nncc2c1`: the half-maximal effective concentration (EC50) is < 0.1 µM.
Consider `ON=C1/C(=N\O)CC2(C/C1=N/O)OCCO2`, for which the EC50 is 33.2 µM.
Under `CCCOc1ccc(C(=O)NNC(=S)NC(=O)CC)cc1` stands 2.81 µM.
